Assay results as given in patent US10456405B2, “Nitric oxide-releasing prodrug molecule of substituted quinazolines” (ZHEJIANG HUAHAI PHARMACEUTICAL CO., LTD, priority 2015, dated 2019).

How the values were obtained:
apoE−/− mice = assay: apoE−/− mouse atherosclerosis model, high-fat diet 10 weeks; assay type: in vivo; conditions: for Aorta eNOS / ApoA1 / Heart eNOS / Serum NO / Serum eNOS: blank administration group = 100, 150 mg/kg twice a day, 10 weeks; for HDL-C / LDL-C / TC: serum, high-fat diet 10 weeks, intragastric 150 mg/kg twice a day
Source text: Experimental method: 36 eight-week-old male apoE-/- mice were selected and randomly divided into a blank administration group, an […] administration group, an […] administration group, an […] administration group, an […] administration group, and an […] administration group, 6 mice per group. The mice in each group were fed with high-fat diet for 10 weeks. At the beginning of the high-fat feeding, the mice in each group were administrated. Each tested compound was intragastric administered at the dose of 150 mg/kg twice a day. The blank administration group was given corresponding dose of saline. […] After the blood was taken, the serum, heart, and aorta were isolated. The levels of total cholesterol (TC), high density lipoprotein cholesterol (HDL-C), and low density lipoprotein cholesterol (LDL-C) in the serum of the mice in each group were measured by automatic biochemical analyzer. The ApoA1 expression level was detected with an ApoA1 kit. The content of NO in the serum of the mice was determined with a total NO test kit (Beyotime). The NOS activities of the heart, aorta, and serum were determined with an NOS test kit (Beyotime). The content of eNOS was calculated by the difference between the measured values determined before and after adding eNOS inhibitor L-NAME (Beyotime).

[1] = Release of nitric oxide in vitro (Griess reagent, nitrite); conditions: 10^−4 mol/L tested substance, phosphate buffer pH 7.4, cysteine 5 mmol/L, 37° C., 1 h; as nitrite
Outline: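 Compounds at final 10^−4 mol/L in pH 7.4 phosphate buffer with 5 mmol/L cysteine, incubated at 37 °C. At 1 h, nitrite measured with Griess reagent (A540) against a nitrite standard curve; NO release expressed as nitrite.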

[2] = Plasma stability in vitro, mouse plasma; conditions: for Content of Tested Substance (n = 2): CD-1 mice plasma, 2 μM, 37° C., in % (unit assumed)
Description: (§1) Experimental method: The tested compounds (2 μM) were added into mouse or human plasma, and incubated at 37° C. Samples were taken at 0, 10, 30, 60 and 120 min respectively. The reaction was stopped by adding a stop agent. The mixture was sufficient shaken, and centrifuged at 4000 rpm for 10 min at 4° C. The supernatant was taken. The concentrations of the tested compounds and their metabolite (H130) in the supernatant were measured by LC-MS/MS.

[3] = Plasma stability in vitro, human plasma; conditions: for Content of Tested Substance (n = 2): human plasma, 2 μM, 37° C., in % (unit assumed)
Description: as §1

Molecule | Aorta eNOS (apoE−/− mice) | ApoA1 (apoE−/− mice) | Heart eNOS (apoE−/− mice) | Serum NO (apoE−/− mice) | Serum eNOS (apoE−/− mice) | HDL-C (apoE−/− mice) | LDL-C (apoE−/− mice) | TC (apoE−/− mice) | Amount of Released No [1] | other results
2-[4-(5,7-dimethoxy-4-oxo-3,4-dihydro-quinazolin-2-yl)-2,6-dimethyl-phenoxy]-ethyl 4-(2-oxo-3-nitroxymethyl-1,2,5-oxadiazol-3-methyl)oxy-4-oxo-butyrate [Compound H111] | 127% | 118% | 145% | 134% | 132% | 83 ± 13 mg/dL | 296 ± 29 mg/dL | 1021 ± 57 mg/dL | 52.12 µM | 
COc1cc(OC)c2c(=O)[nH]c(-c3cc(C)c(OCCO[N+](=O)[O-])c(C)c3)nc2c1 [Compound H101, 2-(4-(2-nitrooxy-ethoxy)-3,5-dimethylphenyl)-5,7-dimethoxyquinazolin-4(3H)-one] | 132% | 126% | 135% | 126% | 128% | 78 ± 9 mg/dL | 273 ± 38 mg/dL | 985 ± 68 mg/dL | 5.97 µM | Content of Tested Substance (n = 2) ([2]; 0 min): 100.0; Content of Tested Substance (n = 2) ([2]; 10 min): 101.4; Content of Tested Substance (n = 2) ([2]; 30 min): 94.8; Content of Tested Substance (n = 2) ([2]; 60 min): 99.7; Content of Tested Substance (n = 2) ([2]; 120 min): 99.1; stability in mouse plasma ([2]; within 2 h): good stability; Content of Tested Substance (n = 2) ([3]; 0 min): 100.0; Content of Tested Substance (n = 2) ([3]; 10 min): 99.5; Content of Tested Substance (n = 2) ([3]; 30 min): 96.4; Content of Tested Substance (n = 2) ([3]; 60 min): 97.5; Content of Tested Substance (n = 2) ([3]; 120 min): 95.8; stability in human plasma ([3]; within 2 h): good stability
COc1cc(OC)c2c(=O)[nH]c(-c3cc(C)c(OCCOC(=O)OC4COC5C(O[N+](=O)[O-])COC45)c(C)c3)nc2c1 (stereo not drawn) [Compound H119, 2-[4-(5,7-dimethoxy-4-oxo-3,4-dihydro-quinazolin-2-yl)-2,6-dimethyl-phenoxy]-ethyl (6-nitroxy-hexahydrofuro[3,2-b]furan-3-yl)-carbonate] | 124% | 114% | 138% | 127% | 126% | 88 ± 14 mg/dL | 308 ± 35 mg/dL | 994 ± 85 mg/dL | 1.24 µM | 
